Results published in patent publication US9302999B2, “Substituted triazoles as herbicides” (E. I. DU PONT DE NEMOURS AND COMPANY, priority 2012, dated 2016).

Legend:
Assay type in all cases: in vivo
[1] = system: bromegrass, downy (downy bromegrass, Bromus tectorum); experiment: Test C pre-/postemergence: bromegrass, downy; conditions: Postemergence
From the text: (§1) Seeds of plant species selected from blackgrass (Alopecurus myosuroides), bromegrass, downy (downy bromegrass, Bromus tectorum), foxtail, green (green foxtail, Setaria viridis), ryegrass, Italian (Italian ryegrass, Lolium multiflorum), winter wheat (Triticum aestivum), wild oat (Avena fatua), galium (catchweed bedstraw, Galium aparine), bermudagrass (Cynodon dactylon), surinam grass (Brachiaria decumbens), cocklebur (common cocklebur, Xanthium strumarium), corn (Zea mays), large crabgrass (Digitaria sanguinalis), woolly cupgrass (Eriochloa villosa), foxtail, giant (giant foxtail, Setaria faberii), goosegrass (Eleusine indica), johnsongrass (Sorghum halepense), kochia (Kochia scoparia), lambsquarters (Chenopodium album), morningglory (Ipomoea coccinea), nightshade (eastern black nightshade, Solanum ptycanthum), nutsedge, yellow (yellow nutsedge, Cyperus esculentus), pigweed (Amaranthus retroflexus), ragweed (common ragweed, Ambrosia elation), soybean (Glycine max), common (oilseed) sunflower (Helianthus annuus), Russian thistle (Salsola kali) and velvetleaf (Abutilon theophrasti) were planted into a blend of loam soil and sand and treated preemergence with test chemicals formulated in a non-phytotoxic solvent mixture which included a surfactant.
(§2) At the same time, plants selected from these crop and weed species and also barley (winter barley, Hordeum vulgare), canarygrass (Phalaris minor), chickweed (common chickweed, Stellaria media) windgrass (Apera spica-venti) and deadnettle (henbit deadnettle, Lamium amplexicaule) were planted in pots containing Redi-Earth® planting medium (Scotts Company, 14111 Scottslawn Road, Marysville, Ohio 43041) comprising spaghnum peat moss, vermiculite, wetting agent and starter nutrients and treated with postemergence applications of test chemicals formulated in the same manner. Plants ranged in height from 2 to 18 cm (1- to 4-leaf stage) for postemergence treatments.
(§3) Treated plants and controls were maintained in a greenhouse for 13 to 15 days, after which time all species were compared to controls and visually evaluated. Plant response ratings, summarized in Table C, are based on a scale of 0 to 100 where 0 is no effect and 100 is complete control. A dash (-) response means no test result.

[2] = system: foxtail, green (green foxtail, Setaria viridis); experiment: Test C pre-/postemergence: foxtail, green; conditions: Postemergence
From the text: as §1, §2, §3

[3] = system: bermudagrass (Cynodon dactylon); experiment: Test C pre-/postemergence: bermudagrass; conditions: Postemergence
From the text: as §1, §2, §3

[4] = system: surinam grass (Brachiaria decumbens); experiment: Test C pre-/postemergence: surinam grass; conditions: Postemergence
From the text: as §1, §2, §3

[5] = system: woolly cupgrass (Eriochloa villosa); experiment: Test C pre-/postemergence: woolly cupgrass; conditions: Postemergence
From the text: as §1, §2, §3

[6] = system: goosegrass (Eleusine indica); experiment: Test C pre-/postemergence: goosegrass; conditions: Postemergence
From the text: as §1, §2, §3

[7] = system: canarygrass (Phalaris minor); experiment: Test C postemergence: canarygrass
From the text: as §2, §3

[8] = system: windgrass (Apera spica-venti); experiment: Test C postemergence: windgrass
From the text: as §2, §3

[9] = system: deadnettle (henbit deadnettle, Lamium amplexicaule); experiment: Test C postemergence: deadnettle
From the text: as §2, §3

[10] = 31 g ai/ha, scale 0 to 100 (0 no effect, 100 complete control)
[11] = 62 g ai/ha, scale 0 to 100 (0 no effect, 100 complete control)
[12] = 125 g ai/ha, scale 0 to 100, 0 no effect, 100 complete control

| SMILES | Plant response rating, Bromegrass, Downy [1, 10] | Plant response rating, Bromegrass, Downy [1, 11] | Plant response rating, Bromegrass, Downy [1, 12] | Plant response rating, Bromegrass, Downy ([1]; 250 g ai/ha, scale 0 to 100) | Plant response rating, Foxtail, Green [2, 10] | Plant response rating, Foxtail, Green [2, 11] | Plant response rating, Foxtail, Green [2, 12] | Plant response rating, Foxtail, Green ([2]; 250 g ai/ha, scale 0 to 100) | Plant response rating, Bermudagrass [3, 10] | Plant response rating, Bermudagrass [3, 12] | Plant response rating, Bermudagrass ([3]; 250 g ai/ha, scale 0 to 100) | Plant response rating, Surinam Grass [4, 10] | Plant response rating, Surinam Grass [4, 11] | Plant response rating, Surinam Grass [4, 12] | Plant response rating, Surinam Grass ([4]; 250 g ai/ha, scale 0 to 100) | Plant response rating, Cupgrass, Woolly [5, 10] | Plant response rating, Cupgrass, Woolly [5, 11] | Plant response rating, Cupgrass, Woolly [5, 12] | Plant response rating, Cupgrass, Woolly ([5]; 250 g ai/ha, scale 0 to 100) | Plant response rating, Goosegrass [6, 10] | further results |
| --- | --- | --- | --- | --- | --- | --- | --- | --- | --- | --- | --- | --- | --- | --- | --- | --- | --- | --- | --- | --- | --- |
| FC(F)(F)c1ccc(-n2nc(Cl)c(Cc3ccnc(C(F)(F)F)c3)n2)cc1 [Compound 28] | 5 | 25 | 35 | 35 | 30 | 70 | 70 | 85 | 10 | 20 | 25 | 5 | 10 | 15 | 15 | 20 | 30 | 35 | 40 | 20 | Plant response rating, Bermudagrass [3, 11]: 15; Plant response rating, Goosegrass [6, 11]: 20; Plant response rating, Goosegrass [6, 12]: 25; Plant response rating, Goosegrass ([6]; 250 g ai/ha, scale 0 to 100): 45; Plant response rating, Canarygrass [7, 10]: 30; Plant response rating, Canarygrass [7, 11]: 50; Plant response rating, Canarygrass [7, 12]: 60; Plant response rating, Canarygrass ([7]; 250 g ai/ha, scale 0 to 100): 90; Plant response rating, Windgrass [8, 10]: 30; Plant response rating, Windgrass [8, 11]: 45; Plant response rating, Windgrass [8, 12]: 50; Plant response rating, Windgrass ([8]; 250 g ai/ha, scale 0 to 100): 50; Plant response rating, Deadnettle [9, 10]: 40; Plant response rating, Deadnettle [9, 11]: 80; Plant response rating, Deadnettle [9, 12]: 90; Plant response rating, Deadnettle ([9]; 250 g ai/ha, scale 0 to 100): 100 |
| Cc1nn(-c2ccnc(Cl)c2)nc1Cc1ccnc(C(F)(F)F)c1 [Compound 141] | 25 | 30 | 30 | 45 | 100 | 100 | 100 | 100 | 15 | 55 | 95 | 15 | 15 | 30 | 30 | 15 | 20 | 30 | 45 | 35 | Plant response rating, Goosegrass [6, 11]: 40; Plant response rating, Goosegrass [6, 12]: 50; Plant response rating, Goosegrass ([6]; 250 g ai/ha, scale 0 to 100): 60; Plant response rating, Canarygrass [7, 10]: 20; Plant response rating, Canarygrass [7, 11]: 25; Plant response rating, Canarygrass [7, 12]: 50; Plant response rating, Canarygrass ([7]; 250 g ai/ha, scale 0 to 100): 80; Plant response rating, Windgrass [8, 10]: 50; Plant response rating, Windgrass [8, 11]: 50; Plant response rating, Windgrass [8, 12]: 55; Plant response rating, Windgrass ([8]; 250 g ai/ha, scale 0 to 100): 60; Plant response rating, Deadnettle [9, 10]: 100; Plant response rating, Deadnettle [9, 11]: 100; Plant response rating, Deadnettle [9, 12]: 100; Plant response rating, Deadnettle ([9]; 250 g ai/ha, scale 0 to 100): 100 |
